ChEMBL document CHEMBL3525983, “Pharmacokinetics, metabolism, and disposition of rivoglitazone, a novel peroxisome proliferator-activated receptor γ agonist, in rats and monkeys” (Drug Metab Dispos, 2011)
Blank lines part the entries; values can stand above or below the compound they belong to.

Legend:
[1] = Drug excretion in F344/DuCrlCrlj rat urine treated with [14C]rivoglitazone at 1 mg/kg, po administered via gavage measured during 0 to 48 hrs by radio-HPLC analysis; type: ADME, organism-based; parameters: dose 1 mg/kg, dosed compound name [14C]Rivoglitazone, route oral; details: in vivo
[2] = Drug excretion in F344/DuCrlCrlj rat feces treated with [14C]rivoglitazone at 1 mg/kg, po administered via gavage measured during 0 to 48 hrs by radio-HPLC analysis; type: ADME, organism-based; parameters: dose 1 mg/kg, dosed compound name [14C]Rivoglitazone, route oral; details: in vivo
Rhesus monkey [3] = test: Drug level in monkey plasma treated with [14C]rivoglitazone assessed as ratio of molar basis AUC (0 to t) at 1 mg/kg, po administered via gavage by LC-MS/MS analysis; type: ADME, organism-based, Macaca mulatta; parameters: dose 1 mg/kg, dosed compound name [14C]Rivoglitazone, route oral; details: in vivo
[4] = Drug excretion in F344/DuCrlCrlj rat urine/feces treated with [14C]rivoglitazone at 1 mg/kg, po administered via gavage measured during 0 to 48 hrs by radio-HPLC analysis; type: ADME, organism-based; parameters: dose 1 mg/kg, dosed compound name [14C]Rivoglitazone, route oral; details: in vivo
Rattus norvegicus [5] = test: Drug level in F344/DuCrlCrlj rat plasma treated with [14C]rivoglitazone assessed as ratio of molar basis AUC (0 to t) at 1 mg/kg, po administered via gavage by LC-MS/MS analysis; type: ADME, organism-based; parameters: dose 1 mg/kg, dosed compound name [14C]Rivoglitazone, route oral; details: in vivo
[6] = Drug excretion in F344/DuCrlCrlj rat bile treated with [14C]rivoglitazone at 1 mg/kg, po administered via gavage measured during 0 to 48 hrs by radio-HPLC analysis; type: ADME, organism-based; parameters: dose 1 mg/kg, dosed compound name [14C]Rivoglitazone, route oral; details: in vivo
[7] = Drug excretion in F344/DuCrlCrlj rat urine/bile treated with [14C]rivoglitazone at 1 mg/kg, po administered via gavage measured during 0 to 48 hrs by radio-HPLC analysis; type: ADME, organism-based; parameters: dose 1 mg/kg, dosed compound name [14C]Rivoglitazone, route oral; details: in vivo
Rattus norvegicus [8] = test: Drug level in F344/DuCrlCrlj rat plasma treated with [14C]rivoglitazone at 1 to 5 mg/kg, po administered as single dose via gavage by LC-MS/MS analysis; type: ADME, organism-based; parameters: dose 1-5 mg/kg, dosed compound name [14C]Rivoglitazone, route oral; details: in vivo
[9] = Retention time of the compound by LC-MS/MS analysis; type: physicochemical; parameters: dosed compound name [14C]Rivoglitazone
Rattus norvegicus [10] = test: Total drug excretion in bile duct-cannulated rat at 0.5 mg/kg, iv administered via tail vein measured during 0 to 48 hrs by liquid scintillation counting; type: ADME, organism-based; parameters: dose 0.5 mg/kg, dosed compound name [14C]Rivoglitazone, route intravenous; details: in vivo
[11] = Drug excretion in monkey urine at 1 mg/kg, iv administered via tail vein measured during 0 to 48 hrs by liquid scintillation counting; type: ADME, organism-based, Macaca mulatta; parameters: dose 1 mg/kg, dosed compound name [14C]Rivoglitazone, route intravenous; details: rhesus monkey, in vivo
Rhesus monkey [12] = test: Total drug excretion in monkey at 1 mg/kg, iv administered via tail vein measured during 0 to 168 hrs by liquid scintillation counting; type: ADME, organism-based, Macaca mulatta; parameters: dose 1 mg/kg, dosed compound name [14C]Rivoglitazone, route intravenous; details: in vivo
[13] = Drug excretion in monkey urine at 1 mg/kg, iv administered via tail vein measured during 0 to 168 hrs by liquid scintillation counting; type: ADME, organism-based, Macaca mulatta; parameters: dose 1 mg/kg, dosed compound name [14C]Rivoglitazone, route intravenous; details: rhesus monkey, in vivo
[14] = Drug excretion in bile duct-cannulated rat bile at 0.5 mg/kg, iv administered via tail vein measured during 0 to 48 hrs by liquid scintillation counting; type: ADME, organism-based; parameters: dose 0.5 mg/kg, dosed compound name [14C]Rivoglitazone, route intravenous; details: in vivo
[15] = Drug excretion in F344/DuCrlCrlj rat feces at 1 mg/kg, iv administered via tail vein measured during 0 to 168 hrs by liquid scintillation counting; type: ADME, organism-based; parameters: dose 1 mg/kg, dosed compound name [14C]Rivoglitazone, route intravenous; details: in vivo
[16] = Drug excretion in F344/DuCrlCrlj rat urine at 1 mg/kg, po administered via gavage measured during 0 to 48 hrs by liquid scintillation counting; type: ADME, organism-based; parameters: dose 1 mg/kg, dosed compound name [14C]Rivoglitazone, route oral; details: in vivo
[17] = Drug excretion in bile duct-cannulated rat bile at 0.5 mg/kg, po administered via gavage measured during 0 to 48 hrs by liquid scintillation counting; type: ADME, organism-based; parameters: dose 0.5 mg/kg, dosed compound name [14C]Rivoglitazone, route oral; details: in vivo
[18] = Drug excretion in bile duct-cannulated rat feces at 0.5 mg/kg, iv administered via tail vein measured during 0 to 48 hrs by liquid scintillation counting; type: ADME, organism-based; parameters: dose 0.5 mg/kg, dosed compound name [14C]Rivoglitazone, route intravenous; details: in vivo
Rattus norvegicus [19] = test: Total drug excretion in F344/DuCrlCrlj rat at 1 mg/kg, po administered via gavage measured during 0 to 48 hrs by liquid scintillation counting; type: ADME, organism-based; parameters: dose 1 mg/kg, dosed compound name [14C]Rivoglitazone, route oral; details: in vivo
[20] = Drug excretion in monkey feces at 1 mg/kg, iv administered […] measured during 0 to 48 hrs by liquid scintillation counting; type: ADME, organism-based, Macaca mulatta; parameters: dose 1 mg/kg, dosed compound name [14C]Rivoglitazone, route intravenous; details: rhesus monkey, in vivo
[21] = Drug excretion in F344/DuCrlCrlj rat feces at 1 mg/kg, po administered via gavage measured during 0 to 48 hrs by liquid scintillation counting; type: ADME, organism-based; parameters: dose 1 mg/kg, dosed compound name [14C]Rivoglitazone, route oral; details: in vivo
[22] = Drug excretion in F344/DuCrlCrlj rat urine at 1 mg/kg, iv administered via tail vein measured during 0 to 48 hrs by liquid scintillation counting; type: ADME, organism-based; parameters: dose 1 mg/kg, dosed compound name [14C]Rivoglitazone, route intravenous; details: in vivo
[23] = Drug excretion in F344/DuCrlCrlj rat urine at 1 mg/kg, po administered via gavage measured during 0 to 168 hrs by liquid scintillation counting; type: ADME, organism-based; parameters: dose 1 mg/kg, dosed compound name [14C]Rivoglitazone, route oral; details: in vivo
Rattus norvegicus [24] = test: Total drug excretion in F344/DuCrlCrlj rat at 1 mg/kg, po administered via gavage measured during 0 to 168 hrs by liquid scintillation counting; type: ADME, organism-based; parameters: dose 1 mg/kg, dosed compound name [14C]Rivoglitazone, route oral; details: in vivo
Rhesus monkey [25] = test: Drug excretion in monkey cage wash at 1 mg/kg, iv administered […] measured during 0 to 168 hrs by liquid scintillation counting; type: ADME, organism-based, Macaca mulatta; parameters: dose 1 mg/kg, dosed compound name [14C]Rivoglitazone, route intravenous; details: in vivo
[26] = Drug excretion in monkey urine at 1 mg/kg, po administered via gavage measured during 0 to 168 hrs by liquid scintillation counting; type: ADME, organism-based, Macaca mulatta; parameters: dose 1 mg/kg, dosed compound name [14C]Rivoglitazone, route oral; details: rhesus monkey, in vivo
Rhesus monkey [27] = test: Total drug excretion in monkey at 1 mg/kg, po administered via gavage measured during 0 to 168 hrs by liquid scintillation counting; type: ADME, organism-based, Macaca mulatta; parameters: dose 1 mg/kg, dosed compound name [14C]Rivoglitazone, route oral; details: in vivo
Rattus norvegicus [28] = test: Total drug excretion in F344/DuCrlCrlj rat at 1 mg/kg, iv administered via tail vein measured during 0 to 48 hrs by liquid scintillation counting; type: ADME, organism-based; parameters: dose 1 mg/kg, dosed compound name [14C]Rivoglitazone, route intravenous; details: in vivo
[29] = Drug excretion in monkey feces at 1 mg/kg, iv administered […] measured during 0 to 168 hrs by liquid scintillation counting; type: ADME, organism-based, Macaca mulatta; parameters: dose 1 mg/kg, dosed compound name [14C]Rivoglitazone, route intravenous; details: rhesus monkey, in vivo
[30] = Drug excretion in F344/DuCrlCrlj rat feces at 1 mg/kg, iv administered via tail vein measured during 0 to 48 hrs by liquid scintillation counting; type: ADME, organism-based; parameters: dose 1 mg/kg, dosed compound name [14C]Rivoglitazone, route intravenous; details: in vivo
[31] = Drug excretion in bile duct-cannulated rat feces at 0.5 mg/kg, po administered via gavage measured during 0 to 48 hrs by liquid scintillation counting; type: ADME, organism-based; parameters: dose 0.5 mg/kg, dosed compound name [14C]Rivoglitazone, route oral; details: in vivo
Rhesus monkey [32] = test: Total drug excretion in monkey at 1 mg/kg, iv administered via tail vein measured during 0 to 48 hrs by liquid scintillation counting; type: ADME, organism-based, Macaca mulatta; parameters: dose 1 mg/kg, dosed compound name [14C]Rivoglitazone, route intravenous; details: in vivo
[33] = Drug excretion in F344/DuCrlCrlj rat urine at 1 mg/kg, iv administered via tail vein measured during 0 to 168 hrs by liquid scintillation counting; type: ADME, organism-based; parameters: dose 1 mg/kg, dosed compound name [14C]Rivoglitazone, route intravenous; details: in vivo
[34] = Drug excretion in monkey urine at 1 mg/kg, po administered via gavage measured during 0 to 48 hrs by liquid scintillation counting; type: ADME, organism-based, Macaca mulatta; parameters: dose 1 mg/kg, dosed compound name [14C]Rivoglitazone, route oral; details: rhesus monkey, in vivo
Rattus norvegicus [35] = test: Total drug excretion in F344/DuCrlCrlj rat at 1 mg/kg, iv administered via tail vein measured during 0 to 168 hrs by liquid scintillation counting; type: ADME, organism-based; parameters: dose 1 mg/kg, dosed compound name [14C]Rivoglitazone, route intravenous; details: in vivo
Rattus norvegicus [36] = test: Total drug excretion in bile duct-cannulated rat at 0.5 mg/kg, po administered via gavage measured during 0 to 48 hrs by liquid scintillation counting; type: ADME, organism-based; parameters: dose 0.5 mg/kg, dosed compound name [14C]Rivoglitazone, route oral; details: in vivo
Rhesus monkey [37] = test: Total drug excretion in monkey at 1 mg/kg, po administered via gavage measured during 0 to 48 hrs by liquid scintillation counting; type: ADME, organism-based, Macaca mulatta; parameters: dose 1 mg/kg, dosed compound name [14C]Rivoglitazone, route oral; details: in vivo
Rattus norvegicus [38] = test: Drug excretion in bile duct-cannulated rat cage wash at 0.5 mg/kg, iv administered via tail vein measured during 0 to 48 hrs by liquid scintillation counting; type: ADME, organism-based; parameters: dose 0.5 mg/kg, dosed compound name [14C]Rivoglitazone, route intravenous; details: in vivo
Rattus norvegicus [39] = test: Drug excretion in bile duct-cannulated rat cage wash at 0.5 mg/kg, po administered via gavage measured during 0 to 48 hrs by liquid scintillation counting; type: ADME, organism-based; parameters: dose 0.5 mg/kg, dosed compound name [14C]Rivoglitazone, route oral; details: in vivo
[40] = Drug excretion in bile duct-cannulated rat urine at 0.5 mg/kg, po administered via gavage measured during 0 to 48 hrs by liquid scintillation counting; type: ADME, organism-based; parameters: dose 0.5 mg/kg, dosed compound name [14C]Rivoglitazone, route oral; details: in vivo
[41] = Drug excretion in monkey feces at 1 mg/kg, po administered via gavage measured during 0 to 48 hrs by liquid scintillation counting; type: ADME, organism-based, Macaca mulatta; parameters: dose 1 mg/kg, dosed compound name [14C]Rivoglitazone, route oral; details: rhesus monkey, in vivo
[42] = Drug excretion in monkey feces at 1 mg/kg, po administered via gavage measured during 0 to 168 hrs by liquid scintillation counting; type: ADME, organism-based, Macaca mulatta; parameters: dose 1 mg/kg, dosed compound name [14C]Rivoglitazone, route oral; details: rhesus monkey, in vivo
Rhesus monkey [43] = test: Drug excretion in monkey cage wash at 1 mg/kg, po administered via gavage measured during 0 to 168 hrs by liquid scintillation counting; type: ADME, organism-based, Macaca mulatta; parameters: dose 1 mg/kg, dosed compound name [14C]Rivoglitazone, route oral; details: in vivo
[44] = Drug excretion in bile duct-cannulated rat urine at 0.5 mg/kg, iv administered via tail vein measured during 0 to 48 hrs by liquid scintillation counting; type: ADME, organism-based; parameters: dose 0.5 mg/kg, dosed compound name [14C]Rivoglitazone, route intravenous; details: in vivo
[45] = Drug excretion in F344/DuCrlCrlj rat feces at 1 mg/kg, po administered via gavage measured during 0 to 168 hrs by liquid scintillation counting; type: ADME, organism-based; parameters: dose 1 mg/kg, dosed compound name [14C]Rivoglitazone, route oral; details: in vivo

- Compound recovery [1]: 10%
- Compound recovery [2]: metabolite_not_detected
- AUCmet/AUCp (Rhesus monkey [3]): 0.64%
- Compound recovery [4]: 10%
- AUCmet/AUCp (Rattus norvegicus [5]): 23.4%
- Compound recovery [6]: 23%
- Compound recovery [7]: 33%
- Compound recovery (Rattus norvegicus [8]): metabolite_detected
- Retention_time [9]: 19 min
SMILES: Cn1c(COc2ccc(CC3SC(=O)NC3=O)cc2)nc2ccc(OS(=O)(=O)O)cc21 (stereo not given)

- Radiolabel recovery (Rattus norvegicus [10]): 86.5%
- Radiolabel recovery [11]: 39.4%
- Radiolabel recovery (Rhesus monkey [12]): 86%
- Radiolabel recovery [13]: 47.4%
- Radiolabel recovery [14]: 55.4%
- Radiolabel recovery [15]: 75.4%
- Radiolabel recovery [16]: 18%
- Radiolabel recovery [17]: 37.2%
- Radiolabel recovery [18]: 7%
- Radiolabel recovery (Rattus norvegicus [19]): 99.1%
- Radiolabel recovery [20]: 10.3%
- Radiolabel recovery [21]: 81.1%
- Radiolabel recovery [22]: 25.5%
- Radiolabel recovery [23]: 18.3%
- Radiolabel recovery (Rattus norvegicus [24]): 100%
- Radiolabel recovery (Rhesus monkey [25]): 0.1%
- Radiolabel recovery [26]: 36.7%
- Radiolabel recovery (Rhesus monkey [27]): 90%
- Radiolabel recovery (Rattus norvegicus [28]): 99.7%
- Radiolabel recovery [29]: 38.4%
- Radiolabel recovery [30]: 74.2%
- Radiolabel recovery [31]: 19.1%
- Radiolabel recovery (Rhesus monkey [32]): 49.7%
- Radiolabel recovery [33]: 25.6%
- Radiolabel recovery [34]: 29.7%
- Radiolabel recovery (Rattus norvegicus [35]): 101%
- Radiolabel recovery (Rattus norvegicus [36]): 81%
- Radiolabel recovery (Rhesus monkey [37]): 54.3%
- Radiolabel recovery (Rattus norvegicus [38]): 5.7%
- Radiolabel recovery (Rattus norvegicus [39]): 4.8%
- Radiolabel recovery [40]: 19.9%
- Radiolabel recovery [41]: 24.6%
- Radiolabel recovery [42]: 53%
- Radiolabel recovery (Rhesus monkey [43]): 0.2%
- Radiolabel recovery [44]: 18.4%
- Radiolabel recovery [45]: 82%
SMILES: COc1ccc2nc(COc3ccc(C[14CH]4SC(=O)NC4=O)cc3)n(C)c2c1 (racemic)
